# From patent US11613517B2, “Amide prodrugs of small molecule nuclear receptor modulators” (OREGON HEALTH & SCIENCE UNIVERSITY, priority 2018, dated 2023)
# Molecular target: T1, FAAH (Mus musculus, UniProt O08914)
# T1 construct: from tissue; host or cells: live wild type male C57Bl/6 mice (in vivo; brain and serum analysed)
# T1 sequence (O08914 1-579): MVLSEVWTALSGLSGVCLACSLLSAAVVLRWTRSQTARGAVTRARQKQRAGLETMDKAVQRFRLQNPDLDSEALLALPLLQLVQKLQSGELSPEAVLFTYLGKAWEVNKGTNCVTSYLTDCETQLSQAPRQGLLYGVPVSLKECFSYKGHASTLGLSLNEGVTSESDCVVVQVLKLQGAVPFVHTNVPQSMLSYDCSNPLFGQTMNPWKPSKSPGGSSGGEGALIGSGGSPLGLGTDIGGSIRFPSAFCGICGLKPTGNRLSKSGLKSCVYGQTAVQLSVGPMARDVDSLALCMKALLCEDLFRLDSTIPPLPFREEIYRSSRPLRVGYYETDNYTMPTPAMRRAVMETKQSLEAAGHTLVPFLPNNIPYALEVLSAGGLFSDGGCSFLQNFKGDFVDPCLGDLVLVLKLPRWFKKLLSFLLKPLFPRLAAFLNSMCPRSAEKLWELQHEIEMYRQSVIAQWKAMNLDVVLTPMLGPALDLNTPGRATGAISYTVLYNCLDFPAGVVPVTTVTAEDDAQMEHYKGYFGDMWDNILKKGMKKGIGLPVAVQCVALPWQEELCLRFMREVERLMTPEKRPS
# Test: FAAH Inhibition Study: prodrug alone or after FAAH inhibitor PF-3845 in mice
# Conditions: FIG. 12, in vivo
# Method: Two cohorts of three mice were injected once intraperitoneally (i.p.) with prodrug at 9.14 μmol/kg. One cohort was injected 1 h prior to prodrug administration with a 1 mg/kg dose of FAAH inhibitor PF-3845. Euthanasia was performed on each cohort 1 h after injection with the prodrug and the tissues and blood were harvested. Tissues were immediately frozen and blood was kept on ice for a minimum of 30 min and then spun down at 7500×g for 15 min. Serum ([…]) was collected and was stored with tissues at −80° C. until samples were processed. Samples were processed as described above.
# All parent drugs and d6-sobetirome internal standard were analyzed using a QTRAP 4000 hybrid/triple quadrupole linear ion trap mass spectrometer (Applied biosystems) with electrospray ionization (ESI) in negative mode. The mass spectrometer was interfaced to a Shimadzu (Columbia, Md.) SIL-20AC XR auto-sampler followed by 2 LC-20AD XR LC pumps and analysis on an Applied Biosystems/SCIEX QTRAP 4000 instrument (Foster City, Calif.). […] Data were acquired using SCIEX Analyst 1.6.2 software (Framingham, Mass., USA) and analyzed using Multiquant 3.0.2
# Statistical analyses were performed using the two-tailed Student t test comparing individual groups with the appropriate vehicle group or as noted. […] AUC values were calculated and data was plotted and analyzed using GraphPad Prism 7. […]
structure (smiles),measurement,value
"CNC(=O)COc1cc(C)c(Cc2cc(C#Cc3ccc([N+](=O)[O-])cc3)c(O)c(C(C)C)c2)c(C)c1 [NRMA-2, 2-(4-(4-hydroxy-3-isopropyl-5-((4-nitrophenyl)ethynyl)benzyl)-3,5-dimethylphenoxy)-N-methylacetamide]",In vivo validation as substrate for the FAAH enzyme,substrate for the FAAH enzyme
